The text below walks through data of patent publication EP0356128A2, “3-(Aminopropyl)methyl phosphinic acid as a therapeutic agent” (SMITH KLINE & FRENCH LABORATORIES LIMITED, priority 1988, dated 1990).

The target in one assay is GABAA receptor. As to the kind of experiment: [3H]-GABA radioligand binding assay, GABAA binding (in the presence of baclofen). The note with it: inhibition of specific GABAA binding to rat synaptic membranes; [³H]-GABA 10 nM, baclofen 100 µM; read-out: IC₅₀ (nM) GABAA. The method, then:
Male rats were killed by decapitation.
The final tissue was resuspended in fresh buffer for assay and transferred in 0.8 ml aliquots to microtubes (0.5 - 1.0 mg protein.tube).

The target in a further assay is GABAB receptor (Rattus norvegicus, UniProt Q9Z0U4). Nature of the assay: biochemical.
GABAB receptor, sequence (Q9Z0U4 17-960 limits assumed): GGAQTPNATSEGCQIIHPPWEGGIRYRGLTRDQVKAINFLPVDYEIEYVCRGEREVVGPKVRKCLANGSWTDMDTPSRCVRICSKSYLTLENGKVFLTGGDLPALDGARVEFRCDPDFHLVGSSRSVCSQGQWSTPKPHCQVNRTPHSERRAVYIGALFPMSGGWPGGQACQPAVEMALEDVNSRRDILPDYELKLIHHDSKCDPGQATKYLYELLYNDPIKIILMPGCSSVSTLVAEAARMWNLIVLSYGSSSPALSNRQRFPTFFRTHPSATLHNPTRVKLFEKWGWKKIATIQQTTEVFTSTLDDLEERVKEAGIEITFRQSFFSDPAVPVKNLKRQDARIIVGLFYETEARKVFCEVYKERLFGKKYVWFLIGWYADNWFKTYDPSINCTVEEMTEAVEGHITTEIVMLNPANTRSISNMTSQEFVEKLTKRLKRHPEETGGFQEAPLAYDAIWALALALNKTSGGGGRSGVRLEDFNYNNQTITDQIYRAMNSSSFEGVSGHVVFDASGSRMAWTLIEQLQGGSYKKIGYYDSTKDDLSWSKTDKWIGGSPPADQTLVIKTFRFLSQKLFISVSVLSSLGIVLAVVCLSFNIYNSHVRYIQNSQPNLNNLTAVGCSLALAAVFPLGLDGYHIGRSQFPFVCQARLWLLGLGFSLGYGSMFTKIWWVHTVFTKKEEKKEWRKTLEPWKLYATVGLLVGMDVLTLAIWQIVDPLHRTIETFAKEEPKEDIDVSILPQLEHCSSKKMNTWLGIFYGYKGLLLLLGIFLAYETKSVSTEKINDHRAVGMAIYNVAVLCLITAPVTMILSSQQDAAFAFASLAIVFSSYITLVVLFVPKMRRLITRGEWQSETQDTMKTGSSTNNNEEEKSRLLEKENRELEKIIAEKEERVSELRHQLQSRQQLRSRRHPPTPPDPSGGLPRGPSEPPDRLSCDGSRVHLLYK
GABAB receptor, sequence (O88871 41-940 partner): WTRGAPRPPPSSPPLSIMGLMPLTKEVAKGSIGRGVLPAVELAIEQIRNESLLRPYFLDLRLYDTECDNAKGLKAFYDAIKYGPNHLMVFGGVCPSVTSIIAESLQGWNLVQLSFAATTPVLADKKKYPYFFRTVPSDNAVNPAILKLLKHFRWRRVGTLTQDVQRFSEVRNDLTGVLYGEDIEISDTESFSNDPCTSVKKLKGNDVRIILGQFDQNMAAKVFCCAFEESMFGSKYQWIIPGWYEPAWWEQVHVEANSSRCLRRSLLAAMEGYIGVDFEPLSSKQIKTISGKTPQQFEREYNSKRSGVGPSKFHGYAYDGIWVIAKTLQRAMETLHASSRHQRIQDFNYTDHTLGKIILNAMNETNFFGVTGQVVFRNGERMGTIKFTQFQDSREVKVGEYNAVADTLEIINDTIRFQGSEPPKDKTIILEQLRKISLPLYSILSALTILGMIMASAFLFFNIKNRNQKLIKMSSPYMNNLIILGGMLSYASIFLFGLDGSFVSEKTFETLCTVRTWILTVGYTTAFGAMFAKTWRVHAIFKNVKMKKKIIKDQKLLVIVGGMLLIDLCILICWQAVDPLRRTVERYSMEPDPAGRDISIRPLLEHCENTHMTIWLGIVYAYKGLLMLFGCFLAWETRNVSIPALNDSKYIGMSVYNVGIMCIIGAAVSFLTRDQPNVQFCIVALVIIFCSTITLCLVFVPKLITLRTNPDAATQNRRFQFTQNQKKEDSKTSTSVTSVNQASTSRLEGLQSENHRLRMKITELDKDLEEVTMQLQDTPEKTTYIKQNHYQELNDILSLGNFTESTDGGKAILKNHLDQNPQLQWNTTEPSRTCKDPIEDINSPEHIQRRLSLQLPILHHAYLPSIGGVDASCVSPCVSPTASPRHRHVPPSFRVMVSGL

Method for GABAB receptor: Male rats were killed by decapitation. […] The homogenate was centrifuged at 1000 g to give a crude nuclear pellet (P₁) and a supernatant fraction enriched in myelin, synaptosomes and mitochrondria. The supernatant was collected and recentrifuged for 20 minutes at 20,000 g. The resulting pellet (P₂) was lysed by resuspension in distilled water and the mixture centrifuged for 20 minutes at 8,000 g. The supernatant was used to rinse off the upper layer of the pellet with the aid of a Pasteur pipette. The combined suspension was centrifuged for 20 minutes at 48,000 g. The final crude synaptic membranes were washed twice with distilled water and were either resuspended in buffer for further washing prior to use as fresh tissue or were stored frozen at -20°C. […]
[³H]-GABA (10 nM final concentrations 65 Ci/mmol) was added to each tube with or without varying concentrations of unlabelled test compound (final volume 1.0 ml). […] GABAB binding was determined by using ³H-GABA in the presence of isoguvacine (40 µM), a GABAA receptor ligand. […]
Non-specific binding was subtracted from the total amount of radioactivity bound in the absence of any drug to yield the amount of ligand specifically bound. The amount of radioactivity specifically bound at a given concentration of non-radioactive drug was expressed as a percentage of the total ligand specifically bound.

`NCCC[PH](=O)O` [3-aminopropyl phosphinic acid]: the values for the IC50 at GABAA receptor and on GABAB receptor were 420 nM and 1 nM, respectively.
Take `CP(=O)(O)CCCN` [Example 1, 3-(aminopropyl)methyl phosphinic acid]: the IC50 at GABAA receptor came to 23000 nM.
